Laboratory results taken from PubChem BioAssay (NCI).
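Following 48 hours of exposure in 96-well plates, responses at five concentrations were used to interpolate endpoints linearly. The concentration for full growth arrest is given as TGI.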

Legend:
Assay in all cases: growth of human tumour cells (NCI), 48 h
[1] = test system: 786-0 renal
[2] = test system: A498 renal
[3] = test system: A549 NSCLC
[4] = test system: ACHN renal
[5] = test system: BT-549 breast
[6] = test system: CAKI-1 renal
[7] = test system: CCRF-CEM leukemia
[8] = test system: COLO 205 colon
[9] = test system: DU-145 prostate
[10] = test system: EKVX NSCLC
[11] = test system: HCC-2998 colon
[12] = test system: HCT-116 colon
[13] = test system: HCT-15 colon
[14] = test system: HL-60(TB) leukemia
[15] = test system: HOP-62 NSCLC
[16] = test system: HOP-92 NSCLC
[17] = test system: HS 578T breast
[18] = test system: HT29 colon
[19] = test system: IGROV1 ovarian
[20] = test system: K-562 leukemia
[21] = test system: KM12 colon
[22] = test system: LOX IMVI melanoma
[23] = test system: M14 melanoma
[24] = test system: MALME-3M melanoma
[25] = test system: MCF7 breast
[26] = test system: MDA-MB-231 breast
[27] = test system: MDA-MB-435
[28] = test system: MDA-N
[29] = test system: NCI-H23 lung
[30] = test system: NCI-H460 lung
[31] = test system: NCI-H522 lung
[32] = test system: NCI/ADR-RES ovarian
[33] = test system: OVCAR-3 ovarian
[34] = test system: OVCAR-4 ovarian
[35] = test system: OVCAR-5 ovarian
[36] = test system: PC-3 prostate
[37] = test system: RXF 393 renal
[38] = test system: SF-268 CNS
[39] = test system: SF-295 CNS
[40] = test system: SF-539 CNS
[41] = test system: SK-MEL-2 melanoma
[42] = test system: SK-MEL-28 melanoma
[43] = test system: SK-MEL-5 melanoma
[44] = test system: SK-OV-3 ovarian
[45] = test system: SN12C renal
[46] = test system: SNB-19 CNS
[47] = test system: SNB-75 CNS
[48] = test system: SR leukemia
[49] = test system: SW-620 colon
[50] = test system: T-47D breast
[51] = test system: TK-10 renal
[52] = test system: U251 CNS
[53] = test system: UACC-257 melanoma
[54] = test system: UACC-62 melanoma
[55] = test system: UO-31 renal
[56] = test system: MOLT-4 leukemia
[57] = test system: NCI-H226 lung
[58] = test system: OVCAR-8 ovarian
[59] = test system: RPMI-8226 leukemia

In the case of `CC1(C)N=C(N)N=C(N)N1c1cccc(Cl)c1`, the TGI [1] is reported as > 100 µM, the TGI [2] is reported as > 100 µM and the TGI [3] is reported as > 100 µM. For the same molecule, the TGI [4] was > 100 µM, the TGI [5] was > 100 µM and the TGI [6] was > 100 µM. For the same molecule, the TGI [7] was > 100 µM, the TGI [8] was > 100 µM and the TGI [9] was > 100 µM. The TGI [10] was > 100 µM, the TGI [11] was > 100 µM and the TGI [12] was > 100 µM. For the same molecule, the TGI [13] was > 100 µM, the TGI [14] was > 100 µM and the TGI [15] was > 100 µM. The TGI [16] was > 100 µM, the TGI [17] was > 100 µM and the TGI [18] was > 100 µM. The TGI [19] was > 100 µM, the TGI [20] was > 100 µM and the TGI [21] was > 100 µM. The TGI [22] was > 100 µM, the TGI [23] was > 100 µM and the TGI [24] was > 100 µM. The TGI [25] was > 100 µM, the TGI [26] was > 100 µM and the TGI [27] was > 100 µM. For the same molecule, the TGI [28] was > 100 µM, the TGI [29] was > 100 µM and the TGI [30] was > 100 µM. For the same molecule, the TGI [31] was > 100 µM, the TGI [32] was > 100 µM and the TGI [33] was > 100 µM. For the same molecule, the TGI [34] was > 100 µM, the TGI [35] was > 100 µM and the TGI [36] was > 100 µM. The TGI [37] was > 100 µM, the TGI [38] was > 100 µM and the TGI [39] was > 100 µM. The TGI [40] was > 100 µM, the TGI [41] was > 100 µM and the TGI [42] was > 100 µM. For the same molecule, the TGI [43] was > 100 µM, the TGI [44] was > 100 µM and the TGI [45] was > 100 µM. For the same molecule, the TGI [46] was > 100 µM, the TGI [47] was > 100 µM and the TGI [48] was > 100 µM. The TGI [49] was > 100 µM, the TGI [50] was > 100 µM and the TGI [51] was > 100 µM. For the same molecule, the TGI [52] was > 100 µM, the TGI [53] was > 100 µM and the TGI [54] was > 100 µM. The TGI [55] was > 100 µM.
`C=C1C(=O)O[C@H]2C[C@@H]1C(=O)CC(C)CCCC(C)=CCC[C@@]2(C)O` (stereo partly specified) was tested, and the TGI [1] was > 25 µM, the TGI [2] was > 25 µM and the TGI [3] was > 25 µM. The TGI [4] was > 25 µM, the TGI [5] was > 25 µM and the TGI [7] was > 25 µM. The TGI [8] was > 25 µM, the TGI [9] was > 25 µM and the TGI [10] was > 25 µM. The TGI [11] was > 25 µM, the TGI [12] was > 25 µM and the TGI [13] was > 25 µM. For the same molecule, the TGI [14] was > 25 µM, the TGI [15] was > 25 µM and the TGI [16] was > 25 µM. For the same molecule, the TGI [17] was > 25 µM, the TGI [18] was > 25 µM and the TGI [19] was > 25 µM. The TGI [21] was > 25 µM, the TGI [22] was > 25 µM and the TGI [23] was > 25 µM. For the same molecule, the TGI [24] was > 25 µM, the TGI [25] was > 25 µM and the TGI [26] was > 25 µM. The TGI [27] was > 25 µM, the TGI [28] was > 25 µM and the TGI [56] was > 25 µM. For the same molecule, the TGI [57] was > 25 µM, the TGI [29] was > 25 µM and the TGI [30] was > 25 µM. The TGI [31] was > 25 µM, the TGI [32] was > 25 µM and the TGI [33] was > 25 µM. For the same molecule, the TGI [34] was > 25 µM, the TGI [35] was > 25 µM and the TGI [58] was > 25 µM. The TGI [36] was > 25 µM, the TGI [59] was > 25 µM and the TGI [37] was > 25 µM. The TGI [38] was > 25 µM, the TGI [39] was > 25 µM and the TGI [40] was > 25 µM. The TGI [41] was > 25 µM, the TGI [42] was > 25 µM and the TGI [43] was > 25 µM. For the same molecule, the TGI [44] was > 25 µM, the TGI [45] was > 25 µM and the TGI [46] was > 25 µM. The TGI [48] was > 25 µM, the TGI [49] was > 25 µM and the TGI [50] was > 25 µM. The TGI [51] was > 25 µM, the TGI [52] was > 25 µM and the TGI [53] was > 25 µM. For the same molecule, the TGI [54] was > 25 µM and the TGI [55] was > 25 µM.
